Data on eight sequences can be found in patent US12534497B2, “TEIPP peptide variant and use as a medicament” (Academisch Ziekenhuis Leiden (h.o.d.n. LUMC), priority 2019, dated 2026).

In one assay the test system is LRPAP1-specific T cells. Put plainly: In vitro vaccination: SLP-loaded moDC co-cultured with tetramer-enriched autologous T cells, tetramer analysis. Format: cell-based, human. The settings on record: 2 healthy blood donors stimulated 2-3 times with length variants. On the procedure:
In short, CD14 monocytes isolated from PBMC of healthy donors were differentiated into dendritic cells by culturing with GM-CSF and IL-4 for 6 days. On day 7, moDCs were plated in 96-well and incubated with 20 uM of V-SLP for 20 h. During the last 18 hours the DCs were matured with […] LPS. On day 8, the moDCs were washed and co-cultured with PBMC enriched for LRPAP1-specific T cells by […]-tetramers. (A) Schematic overview of the in vitro vaccination protocol using two V-variant peptides (C-terminal and N-terminal extended) as synthetic long peptides that require cross-presentation by monocyte-derived dendritic cells for priming of CD8 T cells. […] Control co-cultures were incubated without a peptide. (C) LRPAP1-specific T cell clones were generated via single cell FACS sort and their specificity to the wild type (S-variant) and the V-variant peptide was assessed using two fluorescently labeled tetramers comprising the short wild type sequence (horizontal axis) or the V-substituted peptide (vertical axis) by flow cytometry. Clone 1A8 was generated and described in a previous study^7, and used here as a reference clone. (D) LRPAP1-specific T cells clones were examined for recognition of TAP-deficient melanoma cell lines and their wild-type counterparts. Clones 2H11, 2B9 and 1A10 are shown. Means and SD are shown from one out of two experiments with similar outcome. Clone 1A8, shown in (E), served as positive control. (E) LRPAP1-specific T cells clones were examined for recognition of TAP-deficient melanoma cell lines and their wild-type counterparts. Clones 4B11, 1C5, and 1A8 are shown. Means and SD are shown from one out of two experiments with similar outcome. Clone 1A8, served as positive control. […]
HLA-A*02:01 positive PBMCs were isolated from buffy-coats from consented donors (Sanquin bloodbank, Amsterdam), using a gradient ficoll layer. […] T cell specificity and reactivity were analyzed by flow cytometry.
Tetramer staining on CD8 T cells was performed by 15 min incubation at 4° C. and washed three times with cold PBS/BSA prior to cell surface staining. […] T cell activation was measured by intracellular IFNγ staining (XMF1.2, Biolegend) using an ICS kit (BioLegend) according to manufactures protocol. moDCs were stained with anti-CD1a (clone HI149, BD), anti-CD14 (clone M5E2, BD), anti-CD80 (clone L307.4, BD), anti-CD83 (clone HB15e, BD), anti-CD86 (clone IT2.2, biolegend), and anti HLA-DR (clone G46-6, BD) antibodies for 30 min at 4° C. and washed three times with cold PBS/BSA. Samples were acquired using a BD LSRFortessa™ flow cytometry system and analyzed using FlowJo software (Tree Star). […]

The subject of assay [1] is LRPAP1-specific T cell clone.
A further assay concerns TAP KO melanoma cells. The assay can be described thus: Recognition of TAP-deficient versus wild-type melanoma cells by peptide-induced T cell cultures. It is filed as cell-based, human. The source says: (A) Schematic overview of the tetramer pull-down approach and subsequent stimulation with short peptides. (B) Specificity of polyclonal […] peptide isolated T cells (upper panel) or […] peptide isolated T cells (bottom panel) as measured by staining of the T cells with two fluorescently labeled tetramers comprising the short natural sequence (horizontal axis) or the V-substituted peptide (vertical axis) by flow cytometry. (C) Geomeans for double tetramer positive cells on […] or […] peptide isolated T cells. (D) IFNy and GM-CSF production of polyclonal T cell bulks when stimulated with peptide pulsed EBV-JY cells as measured by ELISA. Means and SD are plotted of one out of three independent experiments. (E) Reactivity of these polyclonal T cell bulks when stimulated with wild-type and TAP knock out 518A2 melanoma cells (rendered TAP-deficient by CRISPR/CAS9 technology) or no tumor cells (control) as measured by indicated cytokine production using ELISA.
18-mer (also referred to as 18-meer) is SEQ ID NO: 4; 21-mer (also referred to as 21-meer) SEQ ID NO: 5; 24-mer (also referred to as 24-meer) is SEQ ID NO:6; and 27-mer (also referred to as 27-meer) is SEQ ID NO: 7. […]
To test the functionality of these T cell bulks, cytokine responses were measured towards both short peptides pulsed on immortalized HLA-A*0201 positive B cells (FIG. 2d). […]

For assay [2], the system named is TCR-transduced CD8 T cells. Put plainly: Reactivity of TCR-transduced T cells to peptide pulsed EBV-JY cells (cytokine ELISA). Format: cell-based, human. The settings on record: V-variant compared with S-variant peptide. The source says: (B) TCRαβ gene transduction into T cells from a healthy donor. The introduced genes contain the murine TCR-αβ domain which enhances correct pairing of transgenic alpha and beta chains. Expression of this domain is confirmed in TCR-transduced T cells (on the horizontal axis). (C) Staining of TCRαβ transduced CD8 T cells with fluorescently labeled tetramers comprising the short natural peptide sequence (left panel) or the V-substituted peptide (right panel). (D) Functional reactivity of tetramer-enriched TCR-transduced T cells to peptide pulsed EBV-JY cells as measured by indicated cytokine production using ELISA. Means and SD are depicted from one out of three experiments with similar outcome. […] TCR-transduced T cells were stimulated with either the wild type version of two different melanoma cell lines, or their TAP knock out (TAP KO) variants generated by CRISPR/CAS9 technology. […] T cells only served as control.
Platinum-Amphotropic retrovirus production (Plat-A) retroviral packing cells (Cell Biolabs) were used for retrovirus production. Plat-A cells were seeded in 6-well plates and incubated overnight until fully attached. Next, the cells were transfected with 2 μg pMP71_1A8 TCR vector using lipofectamine 2000. Retrovirus supernatant was collected on 24 h and 48 h after transfection, spun down to remove cells, and stored in −80° C. […]

For another assay, the target named is HLA-A*0201 (Homo sapiens, UniProt P04439, D140Y/D185E/D98H/E176V/E277Q/G131W/G231S/I119V/I121R/I166T/I218V/L300P/L318F/N151K/N90K/P208A/P217A/Q86G/Q94H/R138H/R169H/T345S). The note with it: previous studies; cited from earlier work.
In assay [3] the test system is monocyte-derived dendritic cells. The assay can be described thus: Cross-presentation of long peptides by monocyte-derived dendritic cells, read out by LRPAP1-specific CD8 T cell clone cytokine release. The note with it: positive control on moDC. Format: cell-based, human. On the procedure: (A) Monocyte-derived dendritic cells were incubated with indicated long peptides comprising the LRPAP1 epitope and co-cultured with a TEIPP-specific CD8 T cell clone 1A8. Non-natural flanking amino acids at the amino-terminus, or natural flanking amino acids at the carboxy-terminus or natural flanking amino acids at both ends were used to elongate the minimal epitope. GM-CSF secretion by the TEIPP-specific T cell clone was used to determine cross-presentation efficiency and pulsing with short peptide ([…]) was used as positive control. (B) Predicted HLA-A2*01 binding affinity scores of LRPAP1 peptides with substituted amino acids at the C-terminal p9 (MHCnet 4.0 algorithm). Binding affinity score was calculated on basis of the IC50 values and ranking percentage (see Table 2 for exact values). (C) Predicted proteasome cleavage activity for four different LRPAP1 peptides using NetCHop 3.1 algorithm. […] (D) Functional T cell avidity was measured as GM-CSF secretion by TEIPP-specific T cell clone stimulated with short peptide—pulsed EBV-JY cells in serial dilutions of the peptides. […] (E) EC50 values were calculated from values obtained in D (wherein EC values represent the dose of peptide resulting in half of the maximal response to that particular peptide variant). […] Cross-presentation of the indicated long peptides was determined by T cell clone. […]

No end group written: not given here.

A word on the EC50: it is the midpoint of the concentration-response curve. The low end stands for greater potency, the high end for weaker potency.

RRVRSFLRGLPALLLLLLFLGPWPAAV [27-mer]: the “expansion of HLA-A*02:01 FLGPWPAAS-specific CD8+ T cells” value (shortened to “expansion”) in the assay on LRPAP1-specific T cells is on record as “able to stimulate the expansion”.
LRGLPALLLLLLFLGPWPAAV [21-mer]: the “expansion” value with LRPAP1-specific T cells is given as “able to stimulate the expansion”.
In the case of FLGPWPAAL [FLGPWPAAL], the EC50 in assay [1] was 3.7 µg/mL.
Regarding RSFLRGLPALLLLLLFLGPWPAAV [24-mer], the “recognition of TAP KO versus TAP proficient melanoma cell lines by long peptide stimulated T cell cultures” value with TAP KO melanoma cells (co-cultures with TAP proficient and TAP KO melanoma cell lines) is listed as “preferentially recognize the TAP KO melanoma cells”. For the same sequence, the “expansion” value in the assay with LRPAP1-specific T cells was “able to stimulate the expansion”.
On to FLGPWPAAV, for which, in assay [2], the “cytokine responses of TCR-transduced T cells” value was “stronger cytokine responses”. This sequence also returned an EC50 in assay [1] of 0.1 µg/mL. For the same sequence, in assay [1] (V versus S at the C-terminus), the “fold better T cell activation” value worked out at 19 fold. Also, in assay [1] (short peptide variants exogenously pulsed, titrated concentrations), the “cytokine response compared to the S-peptide” value is “more potent”. For the same sequence, the “recognition of TAP-negative versus wild type melanoma by peptide induced polyclonal T cell cultures” value in the assay with TAP KO melanoma cells (518A2 melanoma cell line) is “preferred recognition of the TAP-negative tumor line”.
In turn, FLGPWPAAI came in with an EC50 in assay [1] of 0.7 µg/mL.
Consider FLGPWPAAS, for which the “binding affinity onto HLA-A*0201” value on HLA-A*0201 is recorded as “moderate”. Moreover, the EC50 in assay [1] turned out to be 1.9 µg/mL. For the same sequence, the “T cell stimulation by exogenous pulsing of short peptide” value in assay [3] was “did stimulate the T cells”.
In the case of LPALLLLLLFLGPWPAAV [18-mer], the “expansion” value in the assay with LRPAP1-specific T cells is recorded as “able to stimulate the expansion”.
